Results published in article PMC8187357 (Communications Biology, 2021).
Several values for one entry are separate records, joined by “and”; a condition that tells them apart may be missing. Equal values may be shown once. Values belong to the molecule of their own block, whether it stands above or below them. Residues, ends and D or L forms follow the SMILES beside them.

Key:
CT26 colon carcinoma [1] = test: CT26 model, survival in combination with cyclophosphamide; assay type: in vivo, mouse; set-up: key to Survival data: 0: Censored; Death or tumor volume more than 10% of body weight; settings: Vehicle+CTX, individual animals
Experimental: (§1) Studies in syngeneic models including B16 melanoma metastasis model and CT26 colon carcinoma subcutaneous model were performed as described. For the Docetaxel combination experiment in CT26 model, indicated dosage of docetaxel (Source: Docetere® injection by Dr Reddy’s Laboratories) was dosed intraperitoneally to animals. For the CA-170 combination groups, CA-170 (10 mg/kg/day, oral) was dosed ~10 min after docetaxel. Animal grouping, treatment efficacy assessment and %TGI calculations were performed as mentioned above. For the CT26 experiment with cyclophosphamide, 100 mg/kg of cyclophosphamide was dosed once on day 5 intraperitoneally after cell implantation (first day of dosing for all other groups). Anti-PD1 antibody (Clone J43 from BioXcel) was dosed intraperitoneally at 100 µg/animal once every week.

PD-L1 = biological target: T1, PD-L1 (Mus musculus, UniProt Q9EP73); test: Rescue of PD-L1 mediated inhibition of proliferation, mouse splenocytes; assay type: cell-based; settings: splenocyte-based assay
T1 construct: purchased R&D Systems 1019-B7-100
T1 sequence (Q9EP73 with tags, fused parts or gaps limits assumed): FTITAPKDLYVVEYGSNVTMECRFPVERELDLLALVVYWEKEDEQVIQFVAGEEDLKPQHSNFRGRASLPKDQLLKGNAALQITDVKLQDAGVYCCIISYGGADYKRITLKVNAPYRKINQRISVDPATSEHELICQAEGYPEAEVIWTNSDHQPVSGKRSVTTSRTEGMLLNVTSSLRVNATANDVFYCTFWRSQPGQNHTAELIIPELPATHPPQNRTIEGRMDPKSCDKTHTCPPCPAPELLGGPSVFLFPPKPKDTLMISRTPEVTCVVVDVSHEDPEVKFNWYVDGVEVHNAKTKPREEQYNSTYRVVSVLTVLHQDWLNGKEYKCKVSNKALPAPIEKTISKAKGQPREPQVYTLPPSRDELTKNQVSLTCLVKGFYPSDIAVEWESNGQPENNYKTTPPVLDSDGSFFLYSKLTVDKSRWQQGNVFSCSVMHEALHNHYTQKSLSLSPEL
Experimental: The ability of peptides, peptidomimetics, and small molecules were analyzed for their ability to rescue T-cell proliferation or IFN-γ release from the inhibitory activity of PD-L1 or PD-L2 in a splenocyte/PBMC-based functional assay as per the protocols reported in publication. […] For all in vitro assays, test agent stock was prepared in water and diluted further in the assay media to achieve test concentrations. Each experimental condition was carried out in triplicates. Percent rescue for a given test compound concentration was calculated by normalizing individual percent test agent proliferation or IFN-γ release values to percent anti-CD3 and anti-CD28 antibodies stimulated proliferation or IFN-γ release. EC50 values were derived by plotting transformed data into non-linear fit in sigmoidal dose–response curve using GraphPad Prism software (Version 7).

Pharmacokinetics in mice = assay type: in vivo, mouse; settings: mouse, in vivo
Experimental: Animals in Group 1 were administered with 5% w/v dextrose in water and Group 2 were administered with corresponding formulation listed in the Supplementary Table 6 through oral routes. Blood samples (approximately 40 μl) were collected under light isoflurane anesthesia from submandibular at predose, 0.08 (IV), 0.25, 0.5, 1, 2, 4, 8, and 24 h using sparse sampling technique. Plasma samples were separated by centrifugation of whole blood and stored below −70 °C until bioanalysis. All samples were processed for analysis by protein precipitation and analyzed with fit-for-purpose LC–MS/MS method.

CT26 colon carcinoma [2] = test: CT26 model, combination with docetaxel; assay type: in vivo, mouse; settings: for TGI: CT26 in Balb/c mice, 12 days; for Individual tumor volumes: individual animals
Experimental: as §1

Compound: O=P1(N(CCCl)CCCl)NCCCO1 (stereo not shown) [CTX]
Survival data (CT26 colon carcinoma [1]; day 1 of treatment): 0
Survival data (CT26 colon carcinoma [1]; day 3 of treatment): 0
Survival data (CT26 colon carcinoma [1]; day 6 of treatment): 0
Survival data (CT26 colon carcinoma [1]; day 8 of treatment): 0
Survival data (CT26 colon carcinoma [1]; day 10 of treatment): 0
Survival data (CT26 colon carcinoma [1]; day 12 of treatment): 1 and 0
Survival data (CT26 colon carcinoma [1]; day 14 of treatment): 1 and 0
Survival data (CT26 colon carcinoma [1]; day 15 of treatment): 0

EC50 (PD-L1): 6 nM
Compound: C[C@@H](O)[C@H](NC(=O)[C@H](CC(N)=O)NC(=O)[C@@H](N)CO)C(=O)O [PM-116] (H-Ser-Asn-Thr-OH; N-terminus and C-terminus assumed)

EC50 (PD-L1): 55 nM
AUC (Pharmacokinetics in mice; iv, 1 mg/kg): 2180 ng·h/mL
clearance (Pharmacokinetics in mice; iv, 1 mg/kg): 22.9 mL/min/kg
bioavailability (Pharmacokinetics in mice; po): 6.8%
oral bioavailability (in words) (Pharmacokinetics in mice; po): not orally bioavailable
AUC (Pharmacokinetics in mice; po, 30 mg/kg): 495 ng·h/mL
Cmax (Pharmacokinetics in mice; po, 30 mg/kg): 554 ng/mL
Compound: C[C@@H](O)[C@@H]1NC(=O)[C@H](CC(N)=O)NC(=O)[C@H](CO)NC(=O)[C@H](Cc2ccccc2)NC(=O)[C@H](CO)NC(=O)[C@H](CCC(=O)O)NC(=O)[C@H](CO)NC1=O [PM-823] (HELM PEPTIDE1{E.S.F.S.N.T.S}$PEPTIDE1,PEPTIDE1,1:R1-7:R2$$$V2.0)

Compound: CC(=O)O[C@@]12CO[C@@H]1C[C@H](O)[C@@]1(C)C(=O)[C@H](O)C3=C(C)[C@@H](OC(=O)[C@H](O)[C@@H](NC(=O)OC(C)(C)C)c4ccccc4)C[C@@](O)([C@@H](OC(=O)c4ccccc4)[C@H]21)C3(C)C [docetaxel]
TGI (CT26 colon carcinoma [2]; single agent docetaxel 1 mg/kg): 44%
TGI (CT26 colon carcinoma [2]; single agent docetaxel 10 mg/kg): 43%
Individual tumor volumes (CT26 colon carcinoma [2]; Docetaxel 1mg/kg, day 1 of treatment): 22.15 mm3 and 31.55 mm3 and 34.9 mm3 and 45.07 mm3 and 50.49 mm3 and 58.82 mm3 and 62.62 mm3 and 76.97 mm3 and 88.69 mm3
Individual tumor volumes (CT26 colon carcinoma [2]; Docetaxel 1mg/kg, day 4 of treatment): 46.4 mm3 and 28.72 mm3 and 78.5 mm3 and 62.65 mm3 and 97.03 mm3 and 124.03 mm3 and 118.17 mm3 and 67.74 mm3 and 149.61 mm3
Individual tumor volumes (CT26 colon carcinoma [2]; Docetaxel 1mg/kg, day 6 of treatment): 132.42 mm3 and 19.09 mm3 and 90.17 mm3 and 95.74 mm3 and 164.49 mm3 and 224.32 mm3 and 158.95 mm3 and 86.49 mm3 and 198.71 mm3
Individual tumor volumes (CT26 colon carcinoma [2]; Docetaxel 1mg/kg, day 8 of treatment): 186.57 mm3 and 10.93 mm3 and 133.19 mm3 and 151.25 mm3 and 260.04 mm3 and 385.2 mm3 and 276.47 mm3 and 199.1 mm3 and 392.38 mm3
Individual tumor volumes (CT26 colon carcinoma [2]; Docetaxel 1mg/kg, day 11 of treatment): 263.17 mm3 and 22.61 mm3 and 143.19 mm3 and 316.97 mm3 and 451.22 mm3 and 764.37 mm3 and 562.88 mm3 and 301.78 mm3 and 690.4 mm3
Individual tumor volumes (CT26 colon carcinoma [2]; Docetaxel 10mg/kg, day 1 of treatment): 22.87 mm3 and 29.49 mm3 and 35.8 mm3 and 43.1 mm3 and 51.4 mm3 and 57.21 mm3 and 63.02 mm3 and 74.99 mm3 and 92.42 mm3
Individual tumor volumes (CT26 colon carcinoma [2]; Docetaxel 10mg/kg, day 4 of treatment): 54.41 mm3 and 32.56 mm3 and 76.21 mm3 and 71.86 mm3 and 73.1 mm3 and 87.77 mm3 and 117.98 mm3 and 93.45 mm3 and 48.5 mm3
Individual tumor volumes (CT26 colon carcinoma [2]; Docetaxel 10mg/kg, day 6 of treatment): 109.48 mm3 and 42.16 mm3 and 129.37 mm3 and 103.08 mm3 and 111.56 mm3 and 155.23 mm3 and 165.2 mm3 and 163.17 mm3 and 79.31 mm3
Individual tumor volumes (CT26 colon carcinoma [2]; Docetaxel 10mg/kg, day 8 of treatment): 163.72 mm3 and 98.83 mm3 and 244.12 mm3 and 203.26 mm3 and 199.06 mm3 and 316.02 mm3 and 316.69 mm3 and 217.54 mm3 and 105.3 mm3
Individual tumor volumes (CT26 colon carcinoma [2]; Docetaxel 10mg/kg, day 11 of treatment): 322.31 mm3 and 251.42 mm3 and 447.21 mm3 and 378.85 mm3 and 332.62 mm3 and 662.99 mm3 and 641.53 mm3 and 377.51 mm3 and 200.96 mm3
